Results taken from patent US20250230193A1, “CYCLIC COMPOUND HAVING SELECTIVE KRAS INHIBITORY EFFECT ON HRAS AND NRAS” (CHUGAI SEIYAKU KABUSHIKI KAISHA, priority 2022, published 2025).

What was measured:
[1] = target: GDP-bound NRAS wild-type protein (Homo sapiens, UniProt P01111); test: Binding to NRAS by surface plasmon resonance (SPR), Single Cycle Kinetics; conditions: SPR; for NRAS/KRAS (ratio of KD value with respect to NRAS to KD value with respect to KRAS) / NRAS/KRAS (ratio of KD value for NRAS to KD value for KRAS): GDP-bound NRAS wild-type vs GDP-bound KRAS wild-type
[2] = target: GDP-bound HRAS wild-type protein (Homo sapiens, UniProt P01112); test: Binding to HRAS by surface plasmon resonance (SPR), Single Cycle Kinetics; conditions: SPR; for HRAS/KRAS (ratio of KD value with respect to HRAS to KD value with respect to KRAS) / HRAS/KRAS (ratio of KD value for HRAS to KD value for KRAS): GDP-bound HRAS wild-type vs GDP-bound KRAS wild-type
Chain of GDP-bound HRAS wild-type protein (P01112 whole entry): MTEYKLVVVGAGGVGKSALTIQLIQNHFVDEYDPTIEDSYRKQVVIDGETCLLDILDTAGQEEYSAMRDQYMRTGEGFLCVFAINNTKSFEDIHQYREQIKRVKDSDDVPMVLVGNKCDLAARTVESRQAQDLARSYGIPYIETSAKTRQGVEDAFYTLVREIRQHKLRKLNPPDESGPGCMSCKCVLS

Chain of GDP-bound NRAS wild-type protein (P01111 whole entry): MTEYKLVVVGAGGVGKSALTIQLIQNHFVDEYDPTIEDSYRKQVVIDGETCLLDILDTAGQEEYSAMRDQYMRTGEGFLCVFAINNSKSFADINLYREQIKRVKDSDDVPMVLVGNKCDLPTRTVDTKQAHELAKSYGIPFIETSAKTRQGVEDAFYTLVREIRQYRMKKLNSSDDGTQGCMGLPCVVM

CCO[C@@H]1C[C@H]2C(=O)NC3(CCC3)C(=O)N(C)[C@@H](C3CCCC3)C(=O)N(C)[C@H](C(=O)N(C)C)CC(=O)N(C)[C@@H](CC)C(=O)N[C@@H]([C@@H](C)CC)C(=O)N(C)CC(=O)N(C)[C@H]3CCCCCN(C3=O)[C@@H](Cc3ccc(F)cc3OC)C(=O)N(C)CC(=O)N[C@@H](CCc3cc(F)c(C(F)(F)F)c(F)c3)C(=O)N2C1 [PP0914]
NRAS/KRAS (ratio of KD value with respect to NRAS to KD value with respect to KRAS) ([1]; KD ratio): B (a compound having 3 or more and less than 10 is denoted as B) | HRAS/KRAS (ratio of KD value with respect to HRAS to KD value with respect to KRAS) ([2]; KD ratio): B (a compound having 3 or more and less than 10 is denoted as B)

CC[C@H](C)[C@@H]1NC(=O)[C@H](CC(C)C)N(C)C(=O)C[C@@H](C(=O)N(C)C)N(C)C(=O)[C@H](C2CCCC2)N(C)C(=O)C2(CCC2)NC(=O)[C@@H]2C[C@H](C)CN2C(=O)[C@H](CCc2cc(F)c(C(F)(F)F)c(F)c2)NC(=O)CN(C)C(=O)[C@H](Cc2ccc(C)cc2)N2CC/C=C\C[C@@H](C2=O)N(C)C(=O)CN(C)C1=O [PP1864]
NRAS/KRAS (ratio of KD value for NRAS to KD value for KRAS) ([1]; KD ratio): A (a compound having 10 or more and less than 20 is denoted as A) | HRAS/KRAS (ratio of KD value for HRAS to KD value for KRAS) ([2]; KD ratio): B (a compound having 3 or more and less than 10 is denoted as B)

CCC[C@H]1C(=O)N[C@@H]([C@@H](C)CC)C(=O)N(C)CC(=O)N(C)[C@H]2C/C=C\CCN(C2=O)[C@@H](Cc2ccc(C)cc2)C(=O)N(C)CC(=O)N[C@@H](CCc2ccc(C(F)(F)F)c(OC)c2)C(=O)N2C[C@H](OCC)C[C@H]2C(=O)NC2(CCC2)C(=O)N(C)[C@@H](C2CCCC2)C(=O)N(C)[C@H](C(=O)N(C)C)CC(=O)N1C [PP1871]
NRAS/KRAS (ratio of KD value for NRAS to KD value for KRAS) ([1]; KD ratio): A (a compound having 10 or more and less than 20 is denoted as A) | HRAS/KRAS (ratio of KD value for HRAS to KD value for KRAS) ([2]; KD ratio): A (a compound having 10 or more and less than 20 is denoted as A)

CC[C@H](C)[C@@H]1NC(=O)[C@H](CC(C)C)N(C)C(=O)C[C@@H](C(=O)N2CCOCC2)N(C)C(=O)[C@H](C2CCCC2)N(C)C(=O)C2(CCCC2)NC(=O)[C@@H]2CCCN2C(=O)[C@H](CCc2ccc(C(F)(F)F)c(Cl)c2)NC(=O)CN(C)C(=O)[C@H](Cc2ccc(Cl)cc2)N2CC=CC[C@@H](C2=O)N(C)C(=O)CN(C)C1=O [PP0533]
NRAS/KRAS (ratio of KD value with respect to GDP-bound NRAS wild-type protein to KD value with respect to KRAS) ([1]; KD ratio NRAS/KRAS): C (A compound having a KD ratio of 0.1 or more and less than 3 is denoted as C) | HRAS/KRAS (ratio of KD value with respect to GDP-bound HRAS wild-type protein to KD value with respect to KRAS) ([2]; KD ratio HRAS/KRAS): C (A compound having a KD ratio of 0.1 or more and less than 3 is denoted as C)

CCO[C@@H]1C[C@H]2C(=O)NC3(CCC3)C(=O)N(C)[C@@H](C3CCCC3)C(=O)N(C)[C@H](C(=O)N3CCOCC3)CC(=O)N(C)[C@@H](CC(C)C)C(=O)N[C@@H]([C@@H](C)CC)C(=O)N(C)CC(=O)N(C)[C@H]3CC=CCN(C3=O)[C@@H](Cc3ccc(C(F)(F)F)cc3)C(=O)N(C)CC(=O)N[C@@H](CCc3cc(F)c(C(F)(F)F)c(F)c3)C(=O)N2C1 [PP0832]
NRAS/KRAS (ratio of KD value with respect to NRAS to KD value with respect to KRAS) ([1]; KD ratio): C (A compound having a KD ratio of 0.1 or more and less than 3 is denoted as C) | HRAS/KRAS (ratio of KD value with respect to HRAS to KD value with respect to KRAS) ([2]; KD ratio): C (A compound having a KD ratio of 0.1 or more and less than 3 is denoted as C)

CCO[C@@H]1C[C@H]2C(=O)NC3(CC(C)(C)C3)C(=O)N(C)[C@@H](C(CC)CC)C(=O)N(C)[C@H](C(=O)N(C)C)CC(=O)N(C)[C@@H](COC)C(=O)N[C@@H]([C@@H](C)CC)C(=O)N(C)CC(=O)N(C)[C@H]3C/C=C\CCN(C3=O)[C@@H](CC3CCC(F)(F)CC3)C(=O)N(C)CC(=O)N[C@@H](CCc3ccc(C(F)(F)F)c(Cl)c3)C(=O)N2C1 [PP2444]
NRAS/KRAS (ratio of KD value with respect to NRAS to KD value with respect to KRAS) [1]: A (a compound having 10 or more and less than 20 is denoted as A) | HRAS/KRAS (ratio of KD value with respect to HRAS to KD value with respect to KRAS) [2]: A (a compound having 10 or more and less than 20 is denoted as A)

CCCO[C@@H]1CCN2C(=O)[C@H](CCc3cc(F)c(C(F)(F)F)c(F)c3)NC(=O)CN(C)C(=O)[C@H](Cc3ccc(C(F)(F)F)cc3)N3CCCCC[C@@H](C3=O)N(C)C(=O)CN(C)C(=O)[C@H]([C@@H](C)CC)NC(=O)[C@H](CC(C)C)N(C)C(=O)C[C@@H](C(=O)N3CCOCC3)N(C)C(=O)[C@H](C3CCCC3)N(C)C(=O)C3(CCC3)NC(=O)[C@H]12 [PP1083]
NRAS/KRAS (ratio of KD value with respect to NRAS to KD value with respect to KRAS) ([1]; KD ratio): B (a compound having 3 or more and less than 10 is denoted as B) | HRAS/KRAS (ratio of KD value with respect to HRAS to KD value with respect to KRAS) ([2]; KD ratio): B (a compound having 3 or more and less than 10 is denoted as B)
